Measured values published in patent US11795180B2, “Formulation of a pan-JAK inhibitor” (THERAVANCE BIOPHARMA R&D IP, LLC, priority 2020, dated 2023).

Key:
[1] = rat; cited from earlier work
[2] = cannulated rats; cited from earlier work
JAK1 = JAK1 (Homo sapiens, UniProt P23458); conditions: cited from earlier work
immunosuppression = test: Immunosuppression model (systemic functional activity); assay type: in vivo; conditions: mice, same dose required to demonstrate efficacy in the oxazolone model
Source text: (§1) Oxazolone-induced colitis is an experimental model that has a histological resemblance to human ulcerative colitis.

[3] = test system: oxazolone-induced colitis; test: Oxazolone-induced colitis model; assay type: in vivo; conditions: mice
Source text: as §1

JAK3 = target: T1, JAK3 (Homo sapiens, UniProt P52333); conditions: cited from earlier work
T1 sequence (P52333 1-1124): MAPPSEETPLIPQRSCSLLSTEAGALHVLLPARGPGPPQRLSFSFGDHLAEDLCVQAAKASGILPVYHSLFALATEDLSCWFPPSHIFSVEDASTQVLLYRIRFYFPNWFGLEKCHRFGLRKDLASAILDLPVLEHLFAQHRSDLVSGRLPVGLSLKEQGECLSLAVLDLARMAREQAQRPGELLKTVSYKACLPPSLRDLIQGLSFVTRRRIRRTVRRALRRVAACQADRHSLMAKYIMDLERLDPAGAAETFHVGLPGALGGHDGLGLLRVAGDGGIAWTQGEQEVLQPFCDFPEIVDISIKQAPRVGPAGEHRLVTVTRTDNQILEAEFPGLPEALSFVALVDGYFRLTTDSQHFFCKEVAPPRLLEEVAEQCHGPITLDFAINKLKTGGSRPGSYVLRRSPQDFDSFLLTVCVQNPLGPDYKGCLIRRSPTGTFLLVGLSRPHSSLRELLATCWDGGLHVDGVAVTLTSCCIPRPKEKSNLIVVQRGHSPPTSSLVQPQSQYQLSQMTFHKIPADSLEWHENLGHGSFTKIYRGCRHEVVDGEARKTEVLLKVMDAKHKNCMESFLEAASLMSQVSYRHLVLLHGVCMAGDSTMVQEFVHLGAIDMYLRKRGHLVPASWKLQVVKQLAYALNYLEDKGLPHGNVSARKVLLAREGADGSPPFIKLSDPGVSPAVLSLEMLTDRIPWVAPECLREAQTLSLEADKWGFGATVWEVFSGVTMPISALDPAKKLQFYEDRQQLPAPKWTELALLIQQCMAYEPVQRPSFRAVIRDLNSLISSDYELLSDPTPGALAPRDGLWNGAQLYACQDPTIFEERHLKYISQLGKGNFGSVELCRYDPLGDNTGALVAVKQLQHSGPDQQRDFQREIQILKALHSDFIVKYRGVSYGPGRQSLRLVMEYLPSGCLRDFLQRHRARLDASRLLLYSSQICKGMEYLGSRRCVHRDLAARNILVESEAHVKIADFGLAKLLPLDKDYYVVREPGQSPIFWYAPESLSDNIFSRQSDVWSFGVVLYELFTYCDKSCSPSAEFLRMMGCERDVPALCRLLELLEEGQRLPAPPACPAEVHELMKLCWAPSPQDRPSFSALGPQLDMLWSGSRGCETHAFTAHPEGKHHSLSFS

[4] = Dissolution profiles of tablets with 3% magnesium stearate (blending process, particle size); assay type: physicochemical; conditions: tablet with 3% magnesium stearate, Compound I particles blended with a filler, no pre-blending with hydrophobic colloidal silicon dioxide
Method: […] The particle size of Compound I was determined by static image analysis.
During manufacturing of certain tablets comprising 0.5-1% magnesium stearate, film formation on tablet punches was observed. The film formed after compression of a few tablets. After extensive investigation, the problem was resolved by increasing the magnesium stearate content in the composition up to 3%. […]
Using this manufacturing procedure, consistently fast dissolution profiles were obtained for different particle sizes of Compound I without leading to the unwanted film formation on tablet punches. Dissolution profiles of tablets manufactured according to this procedure and containing various particle sizes of Compound I are depicted in FIG. 9.

[5] = oral dosing, preclinical species; cited from earlier work
TYK2 = TYK2 (Homo sapiens, UniProt P29597); conditions: cited from earlier work
JAK2 = JAK2 (Homo sapiens, UniProt O60674); conditions: cited from earlier work
[6] = Drug concentration in stool samples of healthy human subjects; assay type: in vivo
Source text: As described previously in U.S. Pat. No. 9,725,470, the absorption and distribution of Compound I has been extensively profiled in preclinical assays. […] In addition, Compound I is designed to have its effect at the site of action in the gastrointestinal tract.

Sequence of TYK2 (P29597 whole entry): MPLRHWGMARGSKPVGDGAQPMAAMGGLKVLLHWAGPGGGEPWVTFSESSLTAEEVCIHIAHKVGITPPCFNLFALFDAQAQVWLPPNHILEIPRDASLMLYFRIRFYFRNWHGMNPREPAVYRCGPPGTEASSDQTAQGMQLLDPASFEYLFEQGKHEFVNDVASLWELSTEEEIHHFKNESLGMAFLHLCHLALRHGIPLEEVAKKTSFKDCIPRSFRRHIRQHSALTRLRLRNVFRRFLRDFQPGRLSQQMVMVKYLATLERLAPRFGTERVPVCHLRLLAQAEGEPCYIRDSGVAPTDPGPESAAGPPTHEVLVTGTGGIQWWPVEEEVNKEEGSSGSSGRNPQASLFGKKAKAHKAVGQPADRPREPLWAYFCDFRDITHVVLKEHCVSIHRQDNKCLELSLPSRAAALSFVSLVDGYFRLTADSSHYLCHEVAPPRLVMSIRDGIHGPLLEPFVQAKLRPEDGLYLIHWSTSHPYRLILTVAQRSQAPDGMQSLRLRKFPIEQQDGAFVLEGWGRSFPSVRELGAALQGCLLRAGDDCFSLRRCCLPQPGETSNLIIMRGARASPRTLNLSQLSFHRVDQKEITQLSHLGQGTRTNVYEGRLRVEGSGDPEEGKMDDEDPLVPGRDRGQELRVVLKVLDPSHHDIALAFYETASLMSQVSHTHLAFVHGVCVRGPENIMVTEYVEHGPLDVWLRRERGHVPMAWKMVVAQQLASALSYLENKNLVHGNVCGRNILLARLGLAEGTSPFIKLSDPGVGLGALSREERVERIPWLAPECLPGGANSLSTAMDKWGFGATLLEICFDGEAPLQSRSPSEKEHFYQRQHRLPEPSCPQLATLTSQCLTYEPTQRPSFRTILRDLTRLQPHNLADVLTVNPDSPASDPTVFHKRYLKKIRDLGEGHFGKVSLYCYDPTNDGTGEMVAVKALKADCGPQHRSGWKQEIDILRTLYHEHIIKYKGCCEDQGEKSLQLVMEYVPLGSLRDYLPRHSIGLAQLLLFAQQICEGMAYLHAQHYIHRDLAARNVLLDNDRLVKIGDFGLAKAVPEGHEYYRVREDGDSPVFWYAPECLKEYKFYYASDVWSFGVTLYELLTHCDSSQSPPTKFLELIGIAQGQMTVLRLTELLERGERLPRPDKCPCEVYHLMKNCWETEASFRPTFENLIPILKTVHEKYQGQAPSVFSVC
Sequence of JAK2 (O60674 whole entry): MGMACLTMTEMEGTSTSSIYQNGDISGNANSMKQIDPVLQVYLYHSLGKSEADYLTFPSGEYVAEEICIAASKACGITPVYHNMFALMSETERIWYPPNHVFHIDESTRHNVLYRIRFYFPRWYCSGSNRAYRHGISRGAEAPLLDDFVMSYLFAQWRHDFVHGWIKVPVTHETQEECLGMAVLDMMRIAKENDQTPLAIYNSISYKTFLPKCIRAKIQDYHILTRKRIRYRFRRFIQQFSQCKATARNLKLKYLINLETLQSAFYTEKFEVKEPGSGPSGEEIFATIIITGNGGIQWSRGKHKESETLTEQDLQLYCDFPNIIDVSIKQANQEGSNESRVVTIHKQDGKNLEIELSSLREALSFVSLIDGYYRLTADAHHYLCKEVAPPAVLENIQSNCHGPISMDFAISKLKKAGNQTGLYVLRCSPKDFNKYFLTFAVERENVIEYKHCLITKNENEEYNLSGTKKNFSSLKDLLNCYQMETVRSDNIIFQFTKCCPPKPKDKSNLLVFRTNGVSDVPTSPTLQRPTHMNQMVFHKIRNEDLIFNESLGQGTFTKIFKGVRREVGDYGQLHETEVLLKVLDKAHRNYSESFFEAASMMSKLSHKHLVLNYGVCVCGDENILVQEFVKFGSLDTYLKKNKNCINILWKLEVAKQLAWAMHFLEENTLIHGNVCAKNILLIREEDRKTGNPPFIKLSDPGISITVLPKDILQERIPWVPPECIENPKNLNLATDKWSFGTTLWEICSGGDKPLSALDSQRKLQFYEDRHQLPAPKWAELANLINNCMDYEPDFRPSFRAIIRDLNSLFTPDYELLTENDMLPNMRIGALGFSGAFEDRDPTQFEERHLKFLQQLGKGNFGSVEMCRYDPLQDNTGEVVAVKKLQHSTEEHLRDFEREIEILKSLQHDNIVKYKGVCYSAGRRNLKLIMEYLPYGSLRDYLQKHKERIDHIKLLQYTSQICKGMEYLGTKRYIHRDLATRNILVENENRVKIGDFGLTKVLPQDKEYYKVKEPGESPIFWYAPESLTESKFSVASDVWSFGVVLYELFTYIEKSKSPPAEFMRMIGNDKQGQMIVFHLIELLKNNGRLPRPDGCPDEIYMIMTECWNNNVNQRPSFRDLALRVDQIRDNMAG
Sequence of JAK1 (P23458 whole entry): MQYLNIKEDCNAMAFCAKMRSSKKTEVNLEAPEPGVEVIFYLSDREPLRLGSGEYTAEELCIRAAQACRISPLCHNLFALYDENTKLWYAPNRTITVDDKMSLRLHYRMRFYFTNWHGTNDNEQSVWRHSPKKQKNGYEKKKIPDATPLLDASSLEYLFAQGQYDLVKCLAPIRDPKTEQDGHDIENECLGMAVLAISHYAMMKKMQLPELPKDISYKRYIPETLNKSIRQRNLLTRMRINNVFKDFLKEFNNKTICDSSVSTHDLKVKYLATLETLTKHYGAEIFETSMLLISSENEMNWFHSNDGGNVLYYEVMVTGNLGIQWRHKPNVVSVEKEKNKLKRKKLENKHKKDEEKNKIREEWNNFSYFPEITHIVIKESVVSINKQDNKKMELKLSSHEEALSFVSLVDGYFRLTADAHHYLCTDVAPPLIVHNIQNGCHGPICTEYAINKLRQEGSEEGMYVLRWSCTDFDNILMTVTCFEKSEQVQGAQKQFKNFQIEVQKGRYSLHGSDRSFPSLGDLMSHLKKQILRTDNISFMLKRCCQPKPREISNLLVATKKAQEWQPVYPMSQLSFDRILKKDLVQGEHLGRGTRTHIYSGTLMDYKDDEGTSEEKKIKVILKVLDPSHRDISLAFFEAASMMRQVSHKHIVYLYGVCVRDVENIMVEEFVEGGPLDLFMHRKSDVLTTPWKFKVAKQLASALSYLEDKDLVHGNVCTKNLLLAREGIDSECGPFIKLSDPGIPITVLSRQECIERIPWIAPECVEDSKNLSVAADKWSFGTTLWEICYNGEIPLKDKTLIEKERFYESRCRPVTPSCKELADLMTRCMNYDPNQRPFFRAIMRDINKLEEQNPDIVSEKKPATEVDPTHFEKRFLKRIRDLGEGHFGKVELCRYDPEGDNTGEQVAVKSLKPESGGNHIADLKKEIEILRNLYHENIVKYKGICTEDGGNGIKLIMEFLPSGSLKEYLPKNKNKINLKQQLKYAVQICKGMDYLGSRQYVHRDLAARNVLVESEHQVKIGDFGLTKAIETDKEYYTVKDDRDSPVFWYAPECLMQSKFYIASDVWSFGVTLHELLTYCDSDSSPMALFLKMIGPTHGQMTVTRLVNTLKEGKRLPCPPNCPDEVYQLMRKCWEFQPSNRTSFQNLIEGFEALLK

In the case of `Cc1cc(Nc2cc3ncccc3c(N[C@@H]3C[C@H]4CC[C@@H](C3)N4CCC#N)n2)n[nH]1` [Compound I, 3-((1R,3s,5S)-3-((7-((5-methyl-1H-pyrazol-3-yl)amino)-1,6-naphthyridin-5-yl)amino)-8-azabicyclo[3.2.1]octan-8-yl)propanenitrile], the “Ratio of exposure in the colon to exposure in plasma” value [1] is listed as “greater than 450”, the “Absorption into plasma at the portal vein” value [2] is listed as “low absorption” and the “Inhibition of JAK1” value (JAK1) is listed as “potent inhibitor”. For the same compound, the Effect of immunosuppression (immunosuppression) was “minimal effect of immunosuppression”, the “Activity in the oxazolone-induced colitis model” value [3] was “demonstrated activity” and the “Inhibition of JAK3” value (JAK3) was “potent inhibitor”. The “Dissolution rate (FIG. 8)” value [4] was “reduced dissolution rate”, the “Exposure throughout the gastrointestinal tract compared with exposure in plasma” value [5] was “significantly higher exposure” and the “Inhibition of TYK2” value (TYK2) was “potent inhibitor”. For the same compound, the “Inhibition of JAK2” value (JAK2) was “potent inhibitor” and the “Drug concentration in stool samples” value [6] was “high drug concentration”.
